The results in this text go back to patent publication US12285401B2, “Pharmaceutical composition comprising trimebutine or pharmaceutically acceptable salt thereof as an active ingredient for prevention or treatment of cancer” (DAEGU-GYEONGBUK MEDICAL INNOVATION FOUNDATION, priority 2019, dated 2025).

Series [1] relates to A2780-SP cells (ovarian cancer stem cells). As to the kind of experiment: Cell viability assay (Cell-titer Glo), A2780-SP sphere cell viability. Type of series: cell-based. The conditions noted are these: for GI50: A2780-SP ovarian cancer stem cells, 1,500 cells per well, Cell-titer Glo; for viability of A2780-SP cells (ovarian cancer stem cells), result in words: 1500 cells, 7 days, Cell titer Glo. On the technique in general: Cellular ATP, detected with luciferase, serves as a proxy for viable cell number.

The test system of series [2] is A2780 cells (ovarian cancer cells). As to the kind of experiment: Cell viability assay (Cell-titer Glo), A2780 cell viability. Type of series: cell-based. The conditions noted are these: 3 days.
For a further series, the system named is ALDH, OCT4 and SOX2. As to the kind of experiment: Western blotting of markers related to cancer stemness in A2780-SP cells. Type of series: cell-based. The conditions noted are these: 1 μM or 10 μM. How it is done:
A2780-SP cells (ovarian cancer stem cells) were plated in an ultra-low attachment 6-well plate (Corning) at the density of 4×10^5 viable cells per well and cultured in a cancer stem cell medium. On the next day of culture, the medium was replaced with NBM (Neuro Basal Medium), and the cells were cultured for 16 hours in starvation. Then, the cells were treated with the compound of Example 1 at the concentration of 1 μM or 10 μM for 1 hour. The medium was replaced with a cancer stem cell medium containing the compound, and the cells were collected and cultured for an additional 30 minutes before being lysed in RiPA buffer. The extracted protein was separated by SDS-PAGE gel and transferred to a PVDF membrane for Western blotting. […]
Signals were developed on an enhanced chemiluminescence HRP substrate (Bio-Rad) and detected using LAS-3000 mini (Fuji film). The signals were quantified using Image J software (NIH Image).
In order to confirm the anticancer effect through the changes in the expressions of the markers related to sternness and the proteins related to survival and proliferation of cancer stem cells according to the treatment of the pharmaceutical composition containing trimebutine of the present invention, the expression levels of various factors were analyzed by Western blotting. […]
In general terms: In western blotting, separated proteins are transferred to a membrane and probed.

Another series relates to β-catenin. As to the kind of experiment: β-catenin S552 phosphorylation and translocation experiments in A2780-SP cells. Type of series: cell-based. The conditions noted are these: 1 μM or 10 μM, 24 hours. As to the method: A2780-SP cells (ovarian cancer stem cells) were plated in an ultra-low attachment round bottom 6-well plate (Corning) at the density of 4×10^5 viable cells per well and cultured in a cancer stem cell medium (CM). The cancer stem cell medium is composed of a neurobasal medium supplemented with 20 ng/ml of bFGF, 10 ng/ml of EGF, 2.5 ng/ml of amphotericin B, HEPES, Glutamax and B27. On the next day of culture, the cells were treated with the compound at the concentration of 1 μM or 10 μM for 24 hours. The control group was treated in the same manner as above for 24 hours with a neurobasal medium (NBM) and a cancer stem cell medium (CM) containing DMSO.
To measure the degree of phosphorylation of β-catenin S552, 100 μl of RIPA buffer (containing 1× protease inhibitor and phosphatase inhibitor) was added to the prepared cells, and the cells were disrupted by shaking once every 5 minutes for a total of 15 minutes. The disrupted cells were centrifuged at 13,000 rpm for 15 minutes to collect only the supernatant protein, and the obtained protein was quantified using a BCA protein quantification kit (Pierece, MA, USA), and a total of 15 μg of the protein was used for Western blotting. NE-PER Nuclear and Cytoplasmic Extraction Reagents (Thermoscientific, #78833) were used to separate cytoplasmic and nuclear proteins. […]

The test system of another series is A2780-SP xenograft. As to the kind of experiment: A2780-SP xenograft model, tumor formation. Type of series: in vivo. The settings on record: 3 mg/kg, intraperitoneal, nude mouse. How it is done: (§1) In order to confirm the inhibitory effect of the pharmaceutical composition of Examples of the present invention in the ovarian cancer stem cell tumor model, each nude mouse was subcutaneously inoculated with 2×10^6 A2780-SP (ovarian cancer stem cell line) cells. After the implantation, the size of tumor formation was measured using a caliper. When the tumor volume became 100 mm^3 or more, the experimental group was divided into the control group (vehicle) and the pharmaceutical composition of Examples of the present invention treated group (3 mg/kg of trimebutine) and the drug was administered to confirm the effect of the drug. The drug was administered […] through intraperitoneal administration, and the size of the tumor and the weight of the mouse were measured at intervals of 3 to 4 days. Then, all mice were euthanized on the day of the end of the experiment, and finally the size of the tumor and the weight were measured.
(§2) In order to confirm the ovarian cancer treatment effect of the pharmaceutical composition containing trimebutine of the present invention in vivo, an animal model experiment was performed. The specific experimental method is the same as the animal experiment method described in Experimental Protocol 5.

In a further series the test system is Na channel. As to the kind of experiment: Whole cell patch clamp recording, Na channel current in A2780-SP cells. Type of series: cell-based. The conditions noted are these: 10 μM, 5 minutes. For orientation: In patch-clamp work, channel activity is measured electrically.
The next series addresses T1, BKCa channel (Homo sapiens, UniProt Q12791).
T1 construct: K^+ current of the BK channel was measured by increasing the membrane voltage by 10 mV starting at −80 mV; endogenous in cells; host or cells: A2780-SP (ovarian cancer stem cells)
As to the kind of experiment: Whole cell patch clamp recording, BKCa channel current in A2780-SP cells. Type of series: cell-based. The conditions noted are these: 10 μM, 5 minutes.

The next series deals with L-type Ca channel. As to the kind of experiment: Whole cell patch clamp recording, Ca channel current in A2780-SP cells. Type of series: cell-based. The conditions noted are these: 10 μM, 5 minutes.
Series [3] can be described thus: A2780-SP xenograft model, change in body weight. Type of series: in vivo. The conditions noted are these: 3 mg/kg, intraperitoneal, nude mouse. As to the method: as §1, §2

The GI50 is the concentration at which growth is held to half of that of the control.

T1 sequence (Q12791 whole entry): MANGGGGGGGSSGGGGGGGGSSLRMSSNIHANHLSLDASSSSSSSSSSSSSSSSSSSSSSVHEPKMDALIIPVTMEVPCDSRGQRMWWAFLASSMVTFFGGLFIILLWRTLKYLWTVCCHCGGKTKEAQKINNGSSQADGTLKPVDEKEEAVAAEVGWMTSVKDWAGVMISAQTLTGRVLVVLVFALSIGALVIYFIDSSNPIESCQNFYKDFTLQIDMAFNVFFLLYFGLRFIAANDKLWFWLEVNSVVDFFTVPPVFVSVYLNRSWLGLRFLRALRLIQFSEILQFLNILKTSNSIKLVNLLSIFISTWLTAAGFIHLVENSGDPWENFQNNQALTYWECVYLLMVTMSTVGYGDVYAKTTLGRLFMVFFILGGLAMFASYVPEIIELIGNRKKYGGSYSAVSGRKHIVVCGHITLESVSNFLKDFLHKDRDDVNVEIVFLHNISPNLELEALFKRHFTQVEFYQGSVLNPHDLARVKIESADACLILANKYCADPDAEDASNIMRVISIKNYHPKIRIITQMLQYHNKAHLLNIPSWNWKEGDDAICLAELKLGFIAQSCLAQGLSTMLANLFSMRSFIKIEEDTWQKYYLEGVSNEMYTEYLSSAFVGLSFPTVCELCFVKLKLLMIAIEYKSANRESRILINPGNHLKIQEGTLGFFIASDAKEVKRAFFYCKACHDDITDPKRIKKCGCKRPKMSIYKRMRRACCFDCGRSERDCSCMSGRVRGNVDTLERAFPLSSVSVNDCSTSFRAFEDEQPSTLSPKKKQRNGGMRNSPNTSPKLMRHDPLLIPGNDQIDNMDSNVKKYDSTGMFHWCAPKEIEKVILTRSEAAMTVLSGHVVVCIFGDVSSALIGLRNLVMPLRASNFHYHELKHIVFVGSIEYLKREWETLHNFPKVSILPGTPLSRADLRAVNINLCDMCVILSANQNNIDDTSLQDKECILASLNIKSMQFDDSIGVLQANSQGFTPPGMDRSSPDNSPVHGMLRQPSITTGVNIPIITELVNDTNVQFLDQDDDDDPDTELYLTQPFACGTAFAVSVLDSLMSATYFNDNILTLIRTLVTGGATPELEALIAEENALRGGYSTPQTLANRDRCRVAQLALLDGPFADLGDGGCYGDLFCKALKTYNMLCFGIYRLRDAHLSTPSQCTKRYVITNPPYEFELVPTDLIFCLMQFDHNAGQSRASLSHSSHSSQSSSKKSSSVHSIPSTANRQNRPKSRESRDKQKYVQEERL

Compound `COC(=O)C1=C(C)NC(C)=C(C(=O)O[C@@H]2CCCN(Cc3ccccc3)C2)[C@@H]1c1cccc([N+](=O)[O-])c1` (racemic) [Comparative Example 1 (benidipine), Benidipine] returned a GI50 in series [1] of 2640 nM.
Still for that read-out and setting: for `CCOC(=O)C1=C(C)NC(C)=C(C(=O)OCC)C1c1ccccc1/C=C/C(=O)OC(C)(C)C` [Comparative Example 1 (lacidipine), Lacidipine] the value was 2900 nM; for `COc1ccc(CN2CCN(C(c3ccc(F)cc3)c3ccc(F)cc3)CC2)c(OC)c1OC` [Comparative Example 1 (lomerizine), Lomerizine], 2950 nM.
Consider `COC(=O)C1=C(C)NC(C)=C(C(=O)OCCN2CCN(C(c3ccccc3)c3ccccc3)CC2)C1c1cccc([N+](=O)[O-])c1` (centres unmarked) [Comparative Example 1 (manidipine), Manidipine], for which the results for the concentration for 50% growth inhibition (GI50) in series [1] and in series [2] were 2700 nM and around 9670 nM, respectively.
With `CCC(COC(=O)c1cc(OC)c(OC)c(OC)c1)(c1ccccc1)N(C)C` (centres unmarked) [Example 1, Trimebutine], in the series on ALDH, OCT4 and SOX2, the “expressions of ALDH, OCT4 and SOX2, the markers related to cancer stemness” value is on record as “reduced”. Besides, in series [1], the “viability of A2780-SP cells (ovarian cancer stem cells), result in words” value is on record as “reduced the viability” and the concentration for 50% growth inhibition (GI50) was found to be 401 nM. The “viability of A2780-SP cells (ovarian cancer stem cells), result in words” value in [1] (listed as trimebutine) is reported as “excellent effect of inhibiting the survival of ovarian cancer stem cells”. Also, in series [1] (A2780-SP versus A2780, FIGS. 1F and 1G compared with FIGS. 1A to 1E), the “selectivity for cancer stem cells rather than cancer cells” value is “excellent selectivity”. In the series on β-catenin, the “degree of β-catenin S552 phosphorylation” value was “reduced” and the “translocation of β-catenin into the nucleus” value is reported as “reduced”. In addition, the tumor formation entry with A2780-SP xenograft is recorded as “specifically inhibited tumor formation”. In the series on Na channel, the “amplitude of Na current” value was “remarkably suppressed”. The “amplitude of BKCa current” value at BKCa channel is reported as “remarkably suppressed”. The “amplitude of Ca current” value in the series on L-type Ca channel is reported as “remarkably suppressed”. The “change in body weight” value in series [3] is recorded as “no change in body weight”.
